Read-outs that look alike come from different tables or passages of the source.
Experiments:
Type in all cases: cell-based
human TLR8 = target: T1, human TLR8 (Homo sapiens, UniProt Q9NR97); test: TLR8 inhibition reporter assay (HEK-Blue cells, secreted embryonic alkaline phosphatase reporter); conditions: HEK-Blue cells overexpressing human TLR8, stimulated with R848 15.9 μM; read-out: TLR 8 IC50
T1 construct: host or cells: HEK-Blue cells (HEK293-derived reporter line)
T1 sequence (Q9NR97 27-1041): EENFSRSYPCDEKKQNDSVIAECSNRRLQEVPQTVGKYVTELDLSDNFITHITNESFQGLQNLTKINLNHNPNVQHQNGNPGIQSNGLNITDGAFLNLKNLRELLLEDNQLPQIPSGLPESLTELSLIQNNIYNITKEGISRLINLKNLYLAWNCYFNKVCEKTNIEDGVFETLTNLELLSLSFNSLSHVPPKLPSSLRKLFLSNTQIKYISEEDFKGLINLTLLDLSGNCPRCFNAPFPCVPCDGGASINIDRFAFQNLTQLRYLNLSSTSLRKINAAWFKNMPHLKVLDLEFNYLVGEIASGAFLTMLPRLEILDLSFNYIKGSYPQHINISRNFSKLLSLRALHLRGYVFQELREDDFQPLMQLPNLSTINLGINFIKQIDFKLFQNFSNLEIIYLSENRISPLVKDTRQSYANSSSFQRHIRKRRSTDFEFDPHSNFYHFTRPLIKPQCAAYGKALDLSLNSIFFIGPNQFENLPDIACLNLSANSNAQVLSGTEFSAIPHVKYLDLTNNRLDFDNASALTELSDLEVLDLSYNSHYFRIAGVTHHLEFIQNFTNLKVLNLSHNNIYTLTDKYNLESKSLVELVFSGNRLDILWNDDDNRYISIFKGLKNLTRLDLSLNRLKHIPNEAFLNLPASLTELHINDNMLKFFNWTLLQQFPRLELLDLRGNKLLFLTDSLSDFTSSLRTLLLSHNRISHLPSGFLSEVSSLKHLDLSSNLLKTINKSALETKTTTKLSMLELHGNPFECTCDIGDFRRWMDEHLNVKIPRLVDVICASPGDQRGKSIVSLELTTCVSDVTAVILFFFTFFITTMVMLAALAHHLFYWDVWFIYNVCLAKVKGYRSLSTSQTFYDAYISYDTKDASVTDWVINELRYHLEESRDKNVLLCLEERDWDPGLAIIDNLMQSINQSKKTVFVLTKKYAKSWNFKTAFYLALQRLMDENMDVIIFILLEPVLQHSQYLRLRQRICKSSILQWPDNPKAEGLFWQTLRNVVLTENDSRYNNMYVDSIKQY
Method in brief: (§1)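 Cells seeded at 15000 (TLR7), 20,000 (TLR8) or 25,000 (TLR9) per well; compound 0.05 nM–50 μM, 30 min RT pre-incubation. Agonists: gardiquimod 7.5 μM, R848 15.9 μM, ODN2006 5 nM respectively. 22 h, 37 °C; SEAP via HEK-Blue Detection; % inhibition vs agonist+DMSO and known-inhibitor wells.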

human TLR9 = target: T2, human TLR9 (Homo sapiens, UniProt Q9NR96); test: TLR9 inhibition reporter assay (HEK-Blue cells, secreted embryonic alkaline phosphatase reporter)
T2 construct: host or cells: HEK-Blue cells (HEK293-derived reporter line)
T2 sequence (Q9NR96 26-1032): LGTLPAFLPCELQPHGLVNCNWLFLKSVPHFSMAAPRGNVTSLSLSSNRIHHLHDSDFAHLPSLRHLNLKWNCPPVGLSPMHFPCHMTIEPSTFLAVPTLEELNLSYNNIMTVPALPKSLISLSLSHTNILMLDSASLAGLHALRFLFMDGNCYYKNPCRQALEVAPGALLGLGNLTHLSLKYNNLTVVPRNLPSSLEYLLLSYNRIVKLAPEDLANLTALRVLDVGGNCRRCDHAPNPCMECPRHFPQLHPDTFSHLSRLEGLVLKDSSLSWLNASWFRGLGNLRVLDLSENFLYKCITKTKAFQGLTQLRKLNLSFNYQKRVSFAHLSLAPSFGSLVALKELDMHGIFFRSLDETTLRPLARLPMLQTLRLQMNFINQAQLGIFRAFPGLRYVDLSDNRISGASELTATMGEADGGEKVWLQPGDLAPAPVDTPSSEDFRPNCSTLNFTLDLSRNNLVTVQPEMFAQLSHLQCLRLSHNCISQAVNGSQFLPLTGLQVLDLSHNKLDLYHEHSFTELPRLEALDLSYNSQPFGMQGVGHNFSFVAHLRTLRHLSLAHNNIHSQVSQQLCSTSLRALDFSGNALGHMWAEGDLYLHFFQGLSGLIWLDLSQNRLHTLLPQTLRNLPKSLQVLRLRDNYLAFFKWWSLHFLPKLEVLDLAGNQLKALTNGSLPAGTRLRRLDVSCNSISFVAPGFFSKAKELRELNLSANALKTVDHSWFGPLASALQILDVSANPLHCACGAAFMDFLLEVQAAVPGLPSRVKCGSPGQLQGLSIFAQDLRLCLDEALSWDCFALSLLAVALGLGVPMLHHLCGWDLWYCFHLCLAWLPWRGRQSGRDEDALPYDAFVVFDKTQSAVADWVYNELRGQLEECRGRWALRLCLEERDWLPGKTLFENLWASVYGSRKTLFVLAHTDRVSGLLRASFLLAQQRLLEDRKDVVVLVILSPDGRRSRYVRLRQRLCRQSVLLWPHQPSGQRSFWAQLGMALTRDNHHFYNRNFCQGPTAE
Method in brief: as §1

human TLR7 = target: T3, human TLR7 (Homo sapiens, UniProt Q9NYK1); test: TLR7 inhibition reporter assay (HEK-Blue cells, secreted embryonic alkaline phosphatase reporter); conditions: HEK-Blue cells overexpressing human TLR7, stimulated with gardiquimod 7.5 μM; read-out: TLR 7 IC50
T3 construct: host or cells: HEK-Blue cells (HEK293-derived reporter line)
T3 sequence (Q9NYK1 27-1049): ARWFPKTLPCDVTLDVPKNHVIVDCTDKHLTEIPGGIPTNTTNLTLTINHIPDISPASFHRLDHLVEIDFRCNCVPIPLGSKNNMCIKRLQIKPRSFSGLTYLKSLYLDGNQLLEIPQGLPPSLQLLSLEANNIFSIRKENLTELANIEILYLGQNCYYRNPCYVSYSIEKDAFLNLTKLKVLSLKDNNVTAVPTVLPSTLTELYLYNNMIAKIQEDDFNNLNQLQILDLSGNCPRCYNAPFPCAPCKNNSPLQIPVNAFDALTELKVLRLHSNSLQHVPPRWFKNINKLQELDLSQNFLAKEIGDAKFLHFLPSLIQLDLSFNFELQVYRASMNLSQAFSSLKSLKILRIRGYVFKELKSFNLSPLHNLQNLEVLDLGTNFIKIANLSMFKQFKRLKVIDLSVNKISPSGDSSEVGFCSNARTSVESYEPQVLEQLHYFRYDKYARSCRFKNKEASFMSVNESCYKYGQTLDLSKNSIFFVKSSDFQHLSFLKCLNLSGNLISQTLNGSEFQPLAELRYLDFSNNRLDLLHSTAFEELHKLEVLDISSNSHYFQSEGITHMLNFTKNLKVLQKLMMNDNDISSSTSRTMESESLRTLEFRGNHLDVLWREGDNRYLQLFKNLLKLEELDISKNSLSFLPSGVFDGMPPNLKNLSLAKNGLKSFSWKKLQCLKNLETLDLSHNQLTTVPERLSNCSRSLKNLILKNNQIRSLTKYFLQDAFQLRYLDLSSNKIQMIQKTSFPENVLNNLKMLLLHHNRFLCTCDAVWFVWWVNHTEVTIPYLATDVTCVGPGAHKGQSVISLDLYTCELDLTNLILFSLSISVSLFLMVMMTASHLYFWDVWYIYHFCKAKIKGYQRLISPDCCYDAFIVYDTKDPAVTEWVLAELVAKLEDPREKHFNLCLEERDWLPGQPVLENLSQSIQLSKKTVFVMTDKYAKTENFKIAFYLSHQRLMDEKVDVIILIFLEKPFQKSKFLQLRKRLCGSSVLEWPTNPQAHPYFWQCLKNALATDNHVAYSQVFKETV
Method in brief: as §1

[1] = HEK-Blue cells overexpressing human TLR9, stimulated with ODN2006 5 nM, read-out: TLR 9 IC50
[2] = HEK-Blue human TLR9 reporter cells
[3] = HEK-Blue cells overexpressing human TLR9, stimulated with ODN2006 5 nM, 22 hour incubation, reporter readout

Compound | IC50 (human TLR8) [nM] | IC50 (human TLR9) [nM] | IC50 (human TLR9; [1]) [nM] | IC50 (human TLR7) [nM] | IC50 (human TLR9; [2]) [nM] | IC50 (human TLR9; [3]) [nM]
CC(C)CN1C2CCC1CC(N1CCC(c3ccc4nc(-c5ccc(S(C)(=O)=O)cc5)n(C)c4c3F)CC1)C2 (single isomer, unassigned) [Example 267, 7-fluoro-6-(1-(8-isobutyl-8-azabicyclo[3.2.1]octan-3-yl)piperidin-4-yl)-1-methyl-2-(4-(methylsulfonyl)phenyl)-1H-benzo[d]imidazole] | > 50000 | 350 | 347 | > 50000 |  | 
CC(C)N1CCCC(N2CCC(c3cc(F)c4nc(-c5ccc(S(C)(=O)=O)cc5)n(C)c4c3)CC2)CC1 (single isomer, unassigned) [Example 294, 4-fluoro-6-(1-(1-isopropylazepan-4-yl)piperidin-4-yl)-1-methyl-2-(4-(methylsulfonyl)phenyl)-1H-benzo[d]imidazole] | > 50000 |  | 55 | 2300 | 55 | 
CCn1c(-c2ccc(OC)c(OC)c2)nc2cc(C3CCN(C4CCN(CC(C)C)CC4)CC3)ccc21 [Example 41, 2-(3,4-dimethoxyphenyl)-1-ethyl-5-(1′-isobutyl-[1,4′-bipiperidin]-4-yl)-1H-benzo[d]imidazole] | 1600 |  | 404 | 3700 |  | 400
COc1ccc(-c2nc3cc(C4CCN(C5CCN(CC(C)C)CC5)CC4)ccc3n2C)cc1OC [Example 34, 2-(3,4-dimethoxyphenyl)-5-(1′-isobutyl-[1,4′-bipiperidin]-4-yl)-1-methyl-1H-benzo[d]imidazole] | > 50000 |  | 173 | 16000 |  | 170
CC(C)CN1C2CCC1CC(N1CCC(c3ccc4nc(-c5ccc(S(C)(=O)=O)cc5)[nH]c4c3F)CC1)C2 (single isomer, unassigned) [Example 220, 7-fluoro-6-(1-(8-isobutyl-8-azabicyclo[3.2.1]octan-3-yl)piperidin-4-yl)-2-(4-(methylsulfonyl)phenyl)-1H-benzo[d]imidazole] | > 50000 | 680 | 683 | 41900 |  | 
COc1ccc(-c2nc3c(C)cc(C4CCN(C5CCN(CC(C)C)CC5)CC4)cc3[nH]2)cc1OC [Example 43, 2-(3,4-dimethoxyphenyl)-6-(1′-isobutyl-[1,4′-bipiperidin]-4-yl)-4-methyl-1H-benzo[d]imidazole tris(2,2,2-trifluoroacetate)] | 31000 |  | 9.8 | 650 |  | 9.8
Cc1cc(C2CCN(C3CC4CCC(C3)N4C(C)C)CC2)cc2[nH]c(-c3ccc(S(C)(=O)=O)cc3)nc12 (centres unmarked) [Example 333, 6-(1-(8-isopropyl-8-azabicyclo[3.2.1]octan-3-yl)piperidin-4-yl)-4-methyl-2-(4-(methylsulfonyl)phenyl)-1H-benzo[d]imidazole] | > 50000 |  | 329 | > 50000 | 330 | 
COc1ccc(-c2nc3c(C)cc(C4CC5CCC(C4)N5C4CCN(CC(C)C)CC4)cc3n2C)cc1OC (centres unmarked) [Example 50, 2-(3,4-dimethoxyphenyl)-6-(8-(1-isobutylpiperidin-4-yl)-8-azabicyclo[3.2.1]octan-3-yl)-1,4-dimethyl-1H-benzo[d]imidazole] | > 50000 |  | 23 | 2900 |  | 23

The next lines start with the values.

IC50 (human TLR8) [nM] | IC50 (human TLR9) [nM] | IC50 (human TLR9; [1]) [nM] | IC50 (human TLR7) [nM] | IC50 (human TLR9; [2]) [nM] | IC50 (human TLR9; [3]) [nM] | Compound
> 50000 | 110 | 108 | 15400 |  |  | Cn1c(-c2ccc(S(C)(=O)=O)cc2)nc2cc(C3CCN(C4CCN(CC5CC5)CC4)CC3)cc(F)c21 [Example 203, 5-(1′-(cyclopropylmethyl)-[1,4′-bipiperidin]-4-yl)-7-fluoro-1-methyl-2-(4-(methylsulfonyl)phenyl)-1H-benzo[d]imidazole]
> 50000 |  | 108 | 7100 | 110 |  | Cn1c(-c2ccc(S(C)(=O)=O)cc2)nc2c(F)cc(C3CCN(C4CC5CCC(C4)N5CC4CC4)CC3)cc21 (single isomer, unassigned) [Example 282, 6-(1-(8-(cyclopropylmethyl)-8-azabicyclo[3.2.1]octan-3-yl)piperidin-4-yl)-4-fluoro-1-methyl-2-(4-(methylsulfonyl)phenyl)-1H-benzo[d]imidazole]
> 50000 |  | 48 | 3100 | 48 |  | Cn1c(-c2ccc(S(C)(=O)=O)cc2)nc2c(F)cc(C3CCN(C4CCCN(C5CCOCC5)CC4)CC3)cc21 (centres unmarked) [Example 301, 4-fluoro-1-methyl-2-(4-(methylsulfonyl)phenyl)-6-(1-(1-(tetrahydro-2H-pyran-4-yl)azepan-4-yl)piperidin-4-yl)-1H-benzo[d]imidazole]

From patent publication US12492188B2, “1H-benzo[D]imidazole derivatives as TLR9 inhibitors for the treatment of fibrosis” (BRISTOL-MYERS SQUIBB COMPANY, priority 2020, dated 2025)
